Source: patent US11491244B2, “Labeled fluorocarbon agents for positron emission tomography imaging” (McMaster University, priority 2017, dated 2022)
“Also recorded” adds a separate entry of the source. One block for each molecule: values may come before it.

Tests used:
[1] = Stability of [18F]CF3(CF2)7(CH2)3F in water, with and without sonication; assay type: physicochemical
Method: [^18F]CF3(CF2)7(CH2)3F (125 MBq) in FC-72 (2 mL) was separated into 4 equal samples, and water (0.5 mL) was added to each with stirring. At 0.5, 1, 2 and 4 h, the water layer was removed and the amount of activity measured. In addition, [^18F]CF3(CF2)7(CH2)3F (28 MBq) in FC-72 (130 μL) and DI water (2 mL) was suspended in ice and sonicated using a Branson, Digital S450D Sonifier (Emerson Canada, Markham, ON, Canada) for 10 min at 10% amplitude, using 1 second on-1 second off pulses. The samples were centrifuged and the activity in the aqueous layers were measured using a gamma counter.
The focus shifted to using precursors with a propyl spacer in an attempt to minimize the influence of the electron withdrawing fluorine groups. The mesylate CF3(CF2)7(CH2)3OMs and tosylate CF3(CF2)7(CH2)3OTs were prepared and labelled with [^18F]F^−. The tosylate produced the desired compound (RCY 15%±3; n=5) when the reaction was heated to 75° C. for 30 min. While the overall yield was modest, the product could be easily isolated and separated from impurities by liquid-liquid extraction using FC-72 and water.

[2] = Solubility of the fluorinated product in fluorocarbons; assay type: physicochemical
[3] = neat perfluorocarbon; cited from earlier work

Free [18F]F− by radioHPLC and radioTLC ([1]; FC-72 solution extracted with water periodically over 4 h): no evidence of free [^18F]F^−
SMILES: FC(F)(F)C(F)(F)C(F)(F)C(F)(F)C(F)(F)C(F)(F)C(F)(F)C(F)(F)CCC[18F] [[^18F]CF3(CF2)7(CH2)3F]
Activity in the aqueous layer post-sonication ([1]; FC-72 and DI water, sonicated without stabilizing surfactants): no activity was found in the aqueous layer | Loss of fluoride in vitro / in solution ([1]; left in solution over the timeframe of the imaging studies): no signs of loss of fluoride; also recorded: stable with respect to loss of fluoride in vitro

Solubility in FCs [2]: good solubility in FCs
SMILES: FCCC(F)(F)C(F)(F)C(F)(F)C(F)(F)C(F)(F)C(F)(F)C(F)(F)C(F)(F)F [CF3(CF2)7(CH2)2F]

SMILES: FC(F)(F)C(F)(F)C(F)(F)C(F)(F)C(F)(F)C(F)(F)C(F)(F)C(F)(F)Br [PFOB, perfluorooctylbromide]
Water Solubility 25° C. [3]: Insoluble

SMILES: FC(F)(F)C(F)(F)C(F)(F)C(F)(F)C(F)(F)C(F)(F)F [PFH, perfluorohexane]
Water Solubility 25° C. [3]: Insoluble | Water Solubility 25° C. (bound) [3]: (<25 ppm)
